Measurements as given in paper PMC12454493, “Insight on novel sulfamoylphenyl pyrazole derivatives as anticancer carbonic anhydrase inhibitors” (Molecular Diversity, 2024).
Where “and” joins values, the source holds several entries; their conditions need not be identical. Identical values can stand only once.

Legend:
A549/ATCC = experiment: NCI-60 one-dose SRB screen (Non-Small Cell Lung Cancer); assay type: cell-based; settings: Homo sapiens, single dose 10 µM, 48 h, read-out: Growth inhibition percent (GI %)
Description: (§1) The National Cancer Institute (NCI) Developmental Therapeutic Program (www.dtp.nci.nih.gov) selected the 20 novel synthesized compounds 4a-e, 5a-e, 6a-c, 9a-e, 10 and 11 to test for their anticancer activity at a single dose of 10 µM using SRB assay. […] Supplementary Data S3; Table S1 presents the detailed screening results of the most promising compounds. The preliminary screening’s detailed results for the remaining compounds are elucidated in the (Supplementary Data S3; Table S2).
(§2) The guidelines of the Drug Evaluation Branch’s protocol at the NCI in Bethesda served as the basis for the in vitro anticancer screening assays. at one dose 10 µM against a panel of 60 cancer cell lines. The human tumor cell lines used belonged to nine panels: leukemia, melanoma, lung, colon, CNS, ovarian, renal, prostate and breast cancers using the sulforhodamine B (SRB) assay in a 48 h drug exposure protocol.

EKVX = experiment: as above; assay type: cell-based; settings: Homo sapiens, single dose 10 µM, 48 h, read-out: Growth inhibition percent (GI %)
Description: as §1, §2

HOP-62 = experiment: as above; assay type: cell-based; settings: Homo sapiens, single dose 10 µM, 48 h, read-out: Growth inhibition percent (GI %)
Description: as §1, §2

HOP-92 = experiment: as above; assay type: cell-based; settings: Homo sapiens, single dose 10 µM, 48 h, read-out: Growth inhibition percent (GI %)
Description: as §1, §2

NCI-H226 = experiment: as above; assay type: cell-based; settings: Homo sapiens, single dose 10 µM, 48 h, read-out: Growth inhibition percent (GI %)
Description: as §1, §2

NCI-H23 = experiment: as above; assay type: cell-based; settings: Homo sapiens, single dose 10 µM, 48 h, read-out: Growth inhibition percent (GI %)
Description: as §1, §2

NCI-H322M = experiment: as above; assay type: cell-based; settings: Homo sapiens, single dose 10 µM, 48 h, read-out: Growth inhibition percent (GI %)
Description: as §1, §2

NCI-H460 = experiment: as above; assay type: cell-based; settings: Homo sapiens, single dose 10 µM, 48 h, read-out: Growth inhibition percent (GI %)
Description: as §1, §2

NCI-H522 = experiment: as above; assay type: cell-based; settings: Homo sapiens, single dose 10 µM, 48 h, read-out: Growth inhibition percent (GI %)
Description: as §1, §2

COLO 205 = experiment: NCI-60 one-dose SRB screen (Colon Cancer); assay type: cell-based; settings: Homo sapiens, single dose 10 µM, 48 h, read-out: Growth inhibition percent (GI %)
Description: as §1, §2

HCC-2998 = experiment: NCI-60 one-dose SRB screen (Colon Cancer); assay type: cell-based; settings: Homo sapiens, single dose 10 µM, 48 h, read-out: Growth inhibition percent (GI %)
Description: as §1, §2

HCT-116 = experiment: NCI-60 one-dose SRB screen (Colon Cancer); assay type: cell-based; settings: Homo sapiens, single dose 10 µM, 48 h, read-out: Growth inhibition percent (GI %)
Description: as §1, §2

HCT-15 = experiment: NCI-60 one-dose SRB screen (Colon Cancer); assay type: cell-based; settings: Homo sapiens, single dose 10 µM, 48 h, read-out: Growth inhibition percent (GI %)
Description: as §1, §2

HT29 = experiment: NCI-60 one-dose SRB screen (Colon Cancer); assay type: cell-based; settings: Homo sapiens, HT-29, single dose 10 µM, 48 h, read-out: Growth inhibition percent (GI %)
Description: as §1, §2

KM12 = experiment: NCI-60 one-dose SRB screen (Colon Cancer); assay type: cell-based; settings: Homo sapiens, single dose 10 µM, 48 h, read-out: Growth inhibition percent (GI %)
Description: as §1, §2

SW-620 = experiment: NCI-60 one-dose SRB screen (Colon Cancer); assay type: cell-based; settings: Homo sapiens, single dose 10 µM, 48 h, read-out: Growth inhibition percent (GI %)
Description: as §1, §2

SF-268 = experiment: NCI-60 one-dose SRB screen (CNS Cancer); assay type: cell-based; settings: Homo sapiens, single dose 10 µM, 48 h, read-out: Growth inhibition percent (GI %)
Description: as §1, §2

SF-295 = experiment: NCI-60 one-dose SRB screen (CNS Cancer); assay type: cell-based; settings: Homo sapiens, single dose 10 µM, 48 h, read-out: Growth inhibition percent (GI %)
Description: as §1, §2

SF-539 = experiment: NCI-60 one-dose SRB screen (CNS Cancer); assay type: cell-based; settings: Homo sapiens, single dose 10 µM, 48 h, read-out: Growth inhibition percent (GI %)
Description: as §1, §2

SNB-19 = experiment: NCI-60 one-dose SRB screen (CNS Cancer); assay type: cell-based; settings: Homo sapiens, single dose 10 µM, 48 h, read-out: Growth inhibition percent (GI %)
Description: as §1, §2

SNB-75 = experiment: NCI-60 one-dose SRB screen (CNS Cancer); assay type: cell-based; settings: Homo sapiens, single dose 10 µM, 48 h, read-out: Growth inhibition percent (GI %)
Description: as §1, §2

U251 = experiment: NCI-60 one-dose SRB screen (CNS Cancer); assay type: cell-based; settings: Homo sapiens, U-251, single dose 10 µM, 48 h, read-out: Growth inhibition percent (GI %)
Description: as §1, §2

LOX IMVI = experiment: NCI-60 one-dose SRB screen (Melanoma); assay type: cell-based; settings: Homo sapiens, single dose 10 µM, 48 h, read-out: Growth inhibition percent (GI %)
Description: as §1, §2

M14 = experiment: NCI-60 one-dose SRB screen (Melanoma); assay type: cell-based; settings: Homo sapiens, single dose 10 µM, 48 h, read-out: Growth inhibition percent (GI %)
Description: as §1, §2

MALME-3M = experiment: NCI-60 one-dose SRB screen (Melanoma); assay type: cell-based; settings: Homo sapiens, single dose 10 µM, 48 h, read-out: Growth inhibition percent (GI %)
Description: as §1, §2

MDA-MB-435 = experiment: NCI-60 one-dose SRB screen (Melanoma); assay type: cell-based; settings: Homo sapiens, single dose 10 µM, 48 h, read-out: Growth inhibition percent (GI %)
Description: as §1, §2

SK-MEL-28 = experiment: NCI-60 one-dose SRB screen (Melanoma); assay type: cell-based; settings: Homo sapiens, single dose 10 µM, 48 h, read-out: Growth inhibition percent (GI %)
Description: as §1, §2

SK-MEL-2 = experiment: NCI-60 one-dose SRB screen (Melanoma); assay type: cell-based; settings: Homo sapiens, single dose 10 µM, 48 h, read-out: Growth inhibition percent (GI %)
Description: as §1, §2

SK-MEL-5 = experiment: NCI-60 one-dose SRB screen (Melanoma); assay type: cell-based; settings: Homo sapiens, single dose 10 µM, 48 h, read-out: Growth inhibition percent (GI %)
Description: as §1, §2

UACC-257 = experiment: NCI-60 one-dose SRB screen (Melanoma); assay type: cell-based; settings: Homo sapiens, single dose 10 µM, 48 h, read-out: Growth inhibition percent (GI %)
Description: as §1, §2

IGROV1 = experiment: NCI-60 one-dose SRB screen (Ovarian cancer); assay type: cell-based; settings: Homo sapiens, IGROV-1, single dose 10 µM, 48 h, read-out: Growth inhibition percent (GI %)
Description: as §1, §2

NCI/ADR-RES = experiment: NCI-60 one-dose SRB screen (Ovarian cancer); assay type: cell-based; settings: Homo sapiens, single dose 10 µM, 48 h, read-out: Growth inhibition percent (GI %)
Description: as §1, §2

OVCAR-3 = experiment: NCI-60 one-dose SRB screen (Ovarian cancer); assay type: cell-based; settings: Homo sapiens, single dose 10 µM, 48 h, read-out: Growth inhibition percent (GI %)
Description: as §1, §2

OVCAR-4 = experiment: NCI-60 one-dose SRB screen (Ovarian cancer); assay type: cell-based; settings: Homo sapiens, single dose 10 µM, 48 h, read-out: Growth inhibition percent (GI %)
Description: as §1, §2

OVCAR-5 = experiment: NCI-60 one-dose SRB screen (Ovarian cancer); assay type: cell-based; settings: Homo sapiens, single dose 10 µM, 48 h, read-out: Growth inhibition percent (GI %)
Description: as §1, §2

OVCAR-8 = experiment: NCI-60 one-dose SRB screen (Ovarian cancer); assay type: cell-based; settings: Homo sapiens, single dose 10 µM, 48 h, read-out: Growth inhibition percent (GI %)
Description: as §1, §2

SK-OV-3 = experiment: NCI-60 one-dose SRB screen (Ovarian cancer); assay type: cell-based; settings: Homo sapiens, single dose 10 µM, 48 h, read-out: Growth inhibition percent (GI %)
Description: as §1, §2

786-0 = experiment: NCI-60 one-dose SRB screen (Renal Cancer); assay type: cell-based; settings: Homo sapiens, single dose 10 µM, 48 h, read-out: Growth inhibition percent (GI %)
Description: as §1, §2

A498 = experiment: NCI-60 one-dose SRB screen (Renal Cancer); assay type: cell-based; settings: Homo sapiens, single dose 10 µM, 48 h, read-out: Growth inhibition percent (GI %)
Description: as §1, §2

ACHN = experiment: NCI-60 one-dose SRB screen (Renal Cancer); assay type: cell-based; settings: Homo sapiens, single dose 10 µM, 48 h, read-out: Growth inhibition percent (GI %)
Description: as §1, §2

CAKI-1 = experiment: NCI-60 one-dose SRB screen (Renal Cancer); assay type: cell-based; settings: Homo sapiens, single dose 10 µM, 48 h, read-out: Growth inhibition percent (GI %)
Description: as §1, §2

RXF 393 = experiment: NCI-60 one-dose SRB screen (Renal Cancer); assay type: cell-based; settings: Homo sapiens, single dose 10 µM, 48 h, read-out: Growth inhibition percent (GI %)
Description: as §1, §2

TK-10 = experiment: NCI-60 one-dose SRB screen (Renal Cancer); assay type: cell-based; settings: Homo sapiens, single dose 10 µM, 48 h, read-out: Growth inhibition percent (GI %)
Description: as §1, §2

UO-31 = experiment: NCI-60 one-dose SRB screen (Renal Cancer); assay type: cell-based; settings: Homo sapiens, single dose 10 µM, 48 h, read-out: Growth inhibition percent (GI %)
Description: as §1, §2

DU-145 = experiment: NCI-60 one-dose SRB screen (Prostate Cancer); assay type: cell-based; settings: Homo sapiens, single dose 10 µM, 48 h, read-out: Growth inhibition percent (GI %)
Description: as §1, §2

PC-3 = experiment: NCI-60 one-dose SRB screen (Prostate Cancer); assay type: cell-based; settings: Homo sapiens, single dose 10 µM, 48 h, read-out: Growth inhibition percent (GI %)
Description: as §1, §2

hCA XII = hCA XII (Homo sapiens, UniProt O43570); experiment: CA inhibitory activity, spectrophotometric p-NPA assay; assay type: biochemical
Chain of hCA XII (O43570 25-354): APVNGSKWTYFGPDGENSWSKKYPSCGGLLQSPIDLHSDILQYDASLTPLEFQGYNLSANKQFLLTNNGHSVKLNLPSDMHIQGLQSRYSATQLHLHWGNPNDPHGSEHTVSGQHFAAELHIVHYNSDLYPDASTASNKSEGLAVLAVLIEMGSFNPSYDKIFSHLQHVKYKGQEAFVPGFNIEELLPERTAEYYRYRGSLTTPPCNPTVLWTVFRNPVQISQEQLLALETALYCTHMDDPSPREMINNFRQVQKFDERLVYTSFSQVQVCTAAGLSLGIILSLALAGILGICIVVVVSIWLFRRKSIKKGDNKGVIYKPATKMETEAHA

Work on `CS(=O)(=O)c1ccc(-c2nn(-c3ccc(S(N)(=O)=O)cc3)cc2C(=O)OCC(=O)Nc2ccc(S(N)(=O)=O)cc2)cc1` [Compound 4e, 2-Oxo-2-[(4-sulfamoylphenyl)amino] ethyl 3-(4-(methylsulfonyl)phenyl)-1-(4-sulfamoylphenyl)-1H-pyrazole-4-carboxylate] yielded an inhibition at 10 µM (A549/ATCC) of 6.92%, an inhibition at 10 µM (EKVX) of under 5% and an inhibition at 10 µM (HOP-62) of under 5%. For the same compound, the inhibition at 10 µM (HOP-92) was under 5%, the inhibition at 10 µM (NCI-H226) was under 5% and the inhibition at 10 µM (NCI-H23) was under 5%. The inhibition at 10 µM (NCI-H322M) was under 5%, the inhibition at 10 µM (NCI-H460) was under 5% and the inhibition at 10 µM (NCI-H522) was 23.1%. The inhibition at 10 µM (COLO 205) was under 5%, the inhibition at 10 µM (HCC-2998) was under 5% and the inhibition at 10 µM (HCT-116) was under 5%. The inhibition at 10 µM (HCT-15) was under 5%, the inhibition at 10 µM (HT29) was 6.67% and the inhibition at 10 µM (KM12) was under 5%. The inhibition at 10 µM (SW-620) was under 5%, the inhibition at 10 µM (SF-268) was under 5% and the inhibition at 10 µM (SF-295) was under 5%. For the same compound, the inhibition at 10 µM (SF-539) was under 5%, the inhibition at 10 µM (SNB-19) was under 5% and the inhibition at 10 µM (SNB-75) was under 5%. It also gave an inhibition at 10 µM (U251) of under 5%, an inhibition at 10 µM (LOX IMVI) of under 5% and an inhibition at 10 µM (M14) of under 5%. It also gave an inhibition at 10 µM (MALME-3M) of under 5%, an inhibition at 10 µM (MDA-MB-435) of under 5% and an inhibition at 10 µM (SK-MEL-28) of under 5%. The inhibition at 10 µM (SK-MEL-2) was under 5%, the inhibition at 10 µM (SK-MEL-5) was under 5% and the inhibition at 10 µM (UACC-257) was 6.07%. For the same compound, the inhibition at 10 µM (IGROV1) was under 5%, the inhibition at 10 µM (NCI/ADR-RES) was under 5% and the inhibition at 10 µM (OVCAR-3) was under 5%. The inhibition at 10 µM (OVCAR-4) was under 5%, the inhibition at 10 µM (OVCAR-5) was under 5% and the inhibition at 10 µM (OVCAR-8) was under 5%. The inhibition at 10 µM (SK-OV-3) was under 5%, the inhibition at 10 µM (786-0) was under 5% and the inhibition at 10 µM (A498) was under 5%. The inhibition at 10 µM (ACHN) was under 5%, the inhibition at 10 µM (CAKI-1) was 8.93% and the inhibition at 10 µM (RXF 393) was under 5%. The inhibition at 10 µM (TK-10) was under 5%, the inhibition at 10 µM (UO-31) was 8.95% and the inhibition at 10 µM (DU-145) was under 5%. The inhibition at 10 µM (PC-3) was under 5%, the Ki (hCA XII) was 81 nM and the IC50 (hCA XII; p-NPA substrate, pH 7.5, 25 °C, triplicate, read-out: IC50 (µM) ± SD hCA XII) was 0.08 µM and 0.081 µM.
